# Measured values taken from ChEMBL document CHEMBL1909046, “DrugMatrix in vitro pharmacology data”.
# Assays:
# [1] = target: Sigma non-opioid intracellular receptor 1 (Homo sapiens, UniProt Q99720); assay: DRUGMATRIX: Sigma1 radioligand binding (ligand: [3H] Haloperidol); assay type: cell membranes, Jurkat, Membrane; conditions: Not Active = under 50% inhibition at 10 µM
# [2] = target: Vascular endothelial growth factor receptor 1 (Homo sapiens, UniProt P17948); assay type: cell-based; conditions: huvec; note: in other assays of this panel Not Active means under 50% inhibition at 10 µM
# Vascular endothelial growth factor receptor 1, sequence (P17948 whole entry): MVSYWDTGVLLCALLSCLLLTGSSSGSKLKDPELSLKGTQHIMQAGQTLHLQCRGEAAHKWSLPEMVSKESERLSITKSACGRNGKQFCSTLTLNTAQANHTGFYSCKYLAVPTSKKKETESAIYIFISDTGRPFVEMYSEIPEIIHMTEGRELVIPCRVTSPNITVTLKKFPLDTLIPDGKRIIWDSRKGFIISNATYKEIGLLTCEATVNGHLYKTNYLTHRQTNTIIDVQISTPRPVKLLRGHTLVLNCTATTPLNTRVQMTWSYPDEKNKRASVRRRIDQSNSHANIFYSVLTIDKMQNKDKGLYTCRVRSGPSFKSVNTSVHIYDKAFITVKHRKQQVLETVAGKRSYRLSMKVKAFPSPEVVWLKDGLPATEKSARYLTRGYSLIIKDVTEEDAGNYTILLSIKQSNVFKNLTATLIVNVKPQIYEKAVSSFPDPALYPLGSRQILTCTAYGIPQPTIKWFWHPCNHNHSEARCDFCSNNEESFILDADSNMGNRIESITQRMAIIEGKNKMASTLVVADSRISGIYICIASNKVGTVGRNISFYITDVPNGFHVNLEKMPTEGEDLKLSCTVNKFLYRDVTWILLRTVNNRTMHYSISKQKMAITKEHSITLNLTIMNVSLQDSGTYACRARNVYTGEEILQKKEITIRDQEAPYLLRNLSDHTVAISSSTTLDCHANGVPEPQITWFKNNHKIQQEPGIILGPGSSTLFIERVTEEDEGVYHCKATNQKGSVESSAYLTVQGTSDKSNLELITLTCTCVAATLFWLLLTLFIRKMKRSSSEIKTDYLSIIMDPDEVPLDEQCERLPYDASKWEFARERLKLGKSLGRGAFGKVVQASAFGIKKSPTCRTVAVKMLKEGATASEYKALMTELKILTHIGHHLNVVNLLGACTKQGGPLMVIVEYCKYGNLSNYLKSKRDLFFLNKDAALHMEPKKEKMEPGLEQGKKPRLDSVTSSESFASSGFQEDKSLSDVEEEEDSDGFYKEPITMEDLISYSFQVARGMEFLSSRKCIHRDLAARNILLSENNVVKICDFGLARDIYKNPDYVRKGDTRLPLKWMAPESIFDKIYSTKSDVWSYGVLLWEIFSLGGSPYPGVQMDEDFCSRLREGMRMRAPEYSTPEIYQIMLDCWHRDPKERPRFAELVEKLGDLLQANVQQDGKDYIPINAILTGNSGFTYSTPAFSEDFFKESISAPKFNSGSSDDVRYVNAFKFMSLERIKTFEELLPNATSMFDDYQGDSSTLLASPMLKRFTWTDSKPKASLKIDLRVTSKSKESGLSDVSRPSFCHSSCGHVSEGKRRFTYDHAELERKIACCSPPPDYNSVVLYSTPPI
# [3] = DRUGMATRIX: Leukotriene, BLT (LTB4) radioligand binding (ligand: [3H]LTB4); assay type: cell membranes, Membrane; conditions: u-937; Not Active = under 50% inhibition at 10 µM
# [4] = target: T1, Muscarinic acetylcholine receptor M4 (Homo sapiens, UniProt P08173); assay type: cell membranes, CHO-K1, Membrane; note: in other assays of this panel Not Active means under 50% inhibition at 10 µM
# T1 sequence (P08173 whole entry): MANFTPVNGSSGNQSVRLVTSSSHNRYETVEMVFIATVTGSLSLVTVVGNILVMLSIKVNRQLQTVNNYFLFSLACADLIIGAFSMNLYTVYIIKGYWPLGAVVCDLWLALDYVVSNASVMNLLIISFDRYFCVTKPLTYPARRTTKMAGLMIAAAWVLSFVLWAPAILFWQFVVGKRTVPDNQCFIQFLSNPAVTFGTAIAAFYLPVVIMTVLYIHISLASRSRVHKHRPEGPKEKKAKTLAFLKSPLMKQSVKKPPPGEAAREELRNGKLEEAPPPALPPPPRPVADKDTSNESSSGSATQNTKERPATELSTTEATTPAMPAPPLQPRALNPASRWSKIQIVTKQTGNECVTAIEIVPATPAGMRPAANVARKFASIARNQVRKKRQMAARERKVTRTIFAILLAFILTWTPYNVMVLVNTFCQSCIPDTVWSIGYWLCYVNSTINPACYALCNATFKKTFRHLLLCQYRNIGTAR
# [5] = DRUGMATRIX: Nicotinic Acetylcholine radioligand binding (ligand: [125I] Epibatidine); assay type: cell membranes, Membrane; conditions: imr-32; Not Active = under 50% inhibition at 10 µM
# [6] = target: Matrix metalloproteinase-9 (Homo sapiens, UniProt P14780); assay type: cell-based;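 note: inhibition of isolated MMP-9 enzyme activity toward a synthetic peptide substrate, from the DrugMatrix protease screening panel; in other assays of this panel Not Active means under 50% inhibition at 10 µM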
# Matrix metalloproteinase-9, sequence (P14780 whole entry): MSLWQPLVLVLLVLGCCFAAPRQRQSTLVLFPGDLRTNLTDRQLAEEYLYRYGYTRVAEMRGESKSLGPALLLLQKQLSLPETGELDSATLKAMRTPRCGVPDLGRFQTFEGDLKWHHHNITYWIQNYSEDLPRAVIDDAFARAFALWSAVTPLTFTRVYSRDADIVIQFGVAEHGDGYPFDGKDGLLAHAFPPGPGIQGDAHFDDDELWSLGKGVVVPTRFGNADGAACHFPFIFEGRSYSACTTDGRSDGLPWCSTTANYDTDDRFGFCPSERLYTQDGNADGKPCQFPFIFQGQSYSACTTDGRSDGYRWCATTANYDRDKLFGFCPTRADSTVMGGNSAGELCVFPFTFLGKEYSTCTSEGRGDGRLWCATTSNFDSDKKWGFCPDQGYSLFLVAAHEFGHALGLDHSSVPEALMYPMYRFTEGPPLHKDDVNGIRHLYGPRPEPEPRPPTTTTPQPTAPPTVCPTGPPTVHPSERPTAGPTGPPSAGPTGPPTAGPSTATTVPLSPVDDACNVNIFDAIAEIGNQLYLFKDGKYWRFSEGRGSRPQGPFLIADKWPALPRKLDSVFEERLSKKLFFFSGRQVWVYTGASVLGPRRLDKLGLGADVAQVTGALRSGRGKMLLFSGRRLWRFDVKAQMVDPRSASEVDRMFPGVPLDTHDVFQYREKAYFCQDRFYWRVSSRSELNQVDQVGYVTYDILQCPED
# Sigma non-opioid intracellular receptor 1, sequence (Q99720 whole entry): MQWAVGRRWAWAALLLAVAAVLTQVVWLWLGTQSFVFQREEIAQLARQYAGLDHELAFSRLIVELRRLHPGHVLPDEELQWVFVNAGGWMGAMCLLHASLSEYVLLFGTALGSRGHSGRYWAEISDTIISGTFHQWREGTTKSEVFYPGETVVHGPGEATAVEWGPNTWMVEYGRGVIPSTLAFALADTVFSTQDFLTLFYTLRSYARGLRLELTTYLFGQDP
Compound,IC50 ([1]; jurkat),IC50 [2],IC50 [3],Ki [3],IC50 ([4]; cho-k1),IC50 [5],Ki [5],IC50 [6],IC50 ([4]; read-out: IC50) [nM],Ki ([4]; read-out: Ki) [nM],IC50 ([1]; read-out: IC50) [nM],Ki ([1]; read-out: Ki) [nM],Ki ([1]; jurkat),Ki [2],Ki ([4]; cho-k1),Ki [6]
O=C1c2ccccc2C(=O)C1c1ccccc1 [PHENINDIONE],Not Active,Not Active,Not Active,Not Active,Not Active,Not Active,Not Active,Not Active,–,–,–,–,–,–,–,–
Clc1cc(Cl)c(OCC#CI)cc1Cl [HALOPROGIN],Not Active,Not Active,Not Active,Not Active,Not Active,Not Active,Not Active,Not Active,–,–,–,–,–,–,–,–
C[C@H]1C[C@H]2[C@@H]3CCC4=CC(=O)C=C[C@]4(C)[C@@]3(F)[C@@H](O)C[C@]2(C)[C@@]1(O)C(=O)CO [BETAMETHASONE],Not Active,Not Active,Not Active,Not Active,Not Active,Not Active,Not Active,Not Active,–,–,–,–,–,–,–,–
COc1ccc(Cl)cc1C(=O)NCCc1ccc(S(=O)(=O)NC(=O)NC2CCCCC2)cc1 [GLYBURIDE],Not Active,Not Active,Not Active,Not Active,Not Active,Not Active,Not Active,Not Active,–,–,–,–,–,–,–,–
CC1(COc2ccc(CC3SC(=O)NC3=O)cc2)CCCCC1 (stereo not drawn) [CIGLITAZONE],Not Active,Not Active,Not Active,Not Active,–,Not Active,Not Active,Not Active,16200,2260,–,–,–,–,–,–
Cc1ccnc2c1NC(=O)c1cccnc1N2C1CC1 [NEVIRAPINE],Not Active,Not Active,Not Active,Not Active,Not Active,Not Active,Not Active,Not Active,–,–,–,–,–,–,–,–
CNC[C@H](O)c1ccc(O)c(O)c1 [EPINEPHRINE],Not Active,Not Active,Not Active,Not Active,Not Active,Not Active,Not Active,Not Active,–,–,–,–,–,–,–,–
CN(Cc1cc(Br)cc(Br)c1N)C1CCCCC1 [BROMHEXINE],–,Not Active,Not Active,Not Active,Not Active,Not Active,Not Active,Not Active,–,–,61,25,–,–,–,–
COPPER(II) OXIDE,Not Active,Not Active,Not Active,Not Active,Not Active,Not Active,Not Active,Not Active,–,–,–,–,Not Active,Not Active,Not Active,Not Active
CCN1C[C@]2(COC)[C@H](O)C[C@H](OC)[C@@]34[C@@H]5C[C@@]6(O)[C@H](OC(=O)c7ccccc7)[C@@H]5[C@@](OC(C)=O)([C@@H]([C@H](OC)[C@H]23)[C@@H]14)[C@@H](O)[C@@H]6OC [ACONITINE],Not Active,Not Active,Not Active,Not Active,Not Active,Not Active,Not Active,Not Active,–,–,–,–,–,–,–,–
COc1ccc(C[C@H](N)C(=O)N[C@H]2[C@@H](O)[C@H](n3cnc4c(N(C)C)ncnc43)O[C@@H]2CO)cc1 [PUROMYCIN],Not Active,Not Active,Not Active,Not Active,Not Active,Not Active,Not Active,Not Active,–,–,–,–,–,–,–,–
OC[C@H]1OC2C3[C@@H](CO)OC(O[C@H]4[C@H](O)[C@@H](O)[C@@H](O[C@H]5[C@H](O)[C@@H](O)[C@@H](O[C@H]6[C@H](O)[C@@H](O)[C@@H](O[C@H]7[C@H](O)[C@@H](O)[C@@H](O[C@H]8[C@H](O)[C@@H](O)[C@@H](O[C@H]9[C@H](O)[C@@H](O)C(OC1[C@H](O)[C@H]2O)O[C@@H]9CO)O[C@@H]8CO)O[C@@H]7CO)O[C@@H]6CO)O[C@@H]5CO)O[C@@H]4CO)[C@H](O)[C@H]3O,Not Active,Not Active,Not Active,Not Active,Not Active,Not Active,Not Active,Not Active,–,–,–,–,–,–,–,–
NC(N)=Nc1nc(CSCCC(N)=NS(N)(=O)=O)cs1 [FAMOTIDINE],Not Active,Not Active,Not Active,Not Active,Not Active,Not Active,Not Active,Not Active,–,–,–,–,–,–,–,–
C[N+](C)(C)CCOP(=O)([O-])OC[C@H](O)CO,Not Active,Not Active,Not Active,Not Active,Not Active,Not Active,Not Active,Not Active,–,–,–,–,–,–,–,–
COc1cc(/C=C/C(=O)O)ccc1O [FERULATE],Not Active,Not Active,Not Active,Not Active,Not Active,Not Active,Not Active,Not Active,–,–,–,–,–,–,–,–
NC(=O)NC(=O)Cc1ccccc1 [PHENACEMIDE],Not Active,Not Active,Not Active,Not Active,Not Active,Not Active,Not Active,Not Active,–,–,–,–,–,–,–,–
NC(=O)CN1CCCC1=O,Not Active,Not Active,Not Active,Not Active,Not Active,Not Active,Not Active,Not Active,–,–,–,–,–,–,–,–
CC(C)Cn1cnc2c(N)nc3ccccc3c21 [IMIQUIMOD],Not Active,Not Active,Not Active,Not Active,Not Active,Not Active,Not Active,Not Active,–,–,–,–,–,–,–,–
CCO [ALCOHOL],Not Active,Not Active,Not Active,Not Active,Not Active,Not Active,Not Active,Not Active,–,–,–,–,–,–,–,–
C[C@H](C(=O)O)c1ccc2oc(-c3ccc(F)cc3)nc2c1 [FLUNOXAPROFEN],Not Active,Not Active,Not Active,Not Active,Not Active,Not Active,Not Active,Not Active,–,–,–,–,–,–,–,–
O=C(O)c1ccccc1 [BENZOIC ACID],Not Active,Not Active,Not Active,Not Active,Not Active,Not Active,Not Active,Not Active,–,–,–,–,–,–,–,–
CN(CCOc1ccc(C[C@H](Nc2ccccc2C(=O)c2ccccc2)C(=O)O)cc1)c1ccccn1,Not Active,Not Active,Not Active,Not Active,Not Active,Not Active,Not Active,Not Active,–,–,–,–,–,–,–,–
O=c1[nH]cnc2c1ncn2[C@H]1CC[C@@H](CO)O1 [DIDANOSINE],Not Active,Not Active,Not Active,Not Active,Not Active,Not Active,Not Active,Not Active,–,–,–,–,–,–,–,–
CC(C)(c1ccc(O)cc1)c1ccc(O)cc1 [BISPHENOL A],Not Active,Not Active,Not Active,Not Active,Not Active,Not Active,Not Active,Not Active,–,–,–,–,–,–,–,–
